Experimental data from patent US11142554B2 (MASSACHUSETTS INSTITUTE OF TECHNOLOGY, priority 2015, dated 2021).
Positions of bridges follow the written chain, without caps; N, C: chain ends. Non-standard residues stand in square brackets, D forms with d. Residues, ends and D or L forms follow the SMILES beside them. S5 = C=CCCC[C@](C)(N)C(=O)O; Nle = CCCC[C@H](N)C(=O)O

What was measured:
[1] = system: H929 multiple myeloma cells; experiment: Cell viability by CellTiter-Glo (CTG) assay; format: cell-based; settings: 24 hours
Excerpt: (§1) Data are mean and s.d. for experiments performed in at least duplicate. Vehicle is DMSO.

[2] = system: MDA-MB231 cells; experiment: Cell viability by CellTiter-Glo (CTG) assay; format: cell-based, human; settings: 24 hours
Excerpt: as §1

[3] = Circular dichroism analysis of alpha-helicity; format: physicochemical; settings: Tris buffer pH 7.4
Excerpt: FIG. 4|Results of studies assessing the alpha-helicity of various internally cross-linked peptides. Circular dichroism analysis illustrating helicity of stapled peptides 3 (SEQ ID NO:9), 7 (SEQ ID NO:7), and 10 (SEQ ID NO:8) and the non-stapled peptide of the amino acid sequence […] (SEQ ID NO:54), dissolved in Tris buffer pH.7.4.

[4] = system: MEF cells; experiment: Lactate dehydrogenase (LDH) release assay, non-specific cell lysis; format: cell-based
Excerpt: FIG. 5|Results of studies assessing non-specific cell-lysis by internally cross-linked peptides. Lactate dehydrogenase release assays (LDH) identified membrane-disruptive peptides 3 (SEQ ID NO:9) and 7 (SEQ ID NO:7); tested in MEF cells. Peptides 7, 10, 3, and 11-20 are SEQ ID NOs: 7, 8, 9, and 10-19 respectively.
Additional studies examined the non-specific cell lysis activity of peptide 3 (SEQ ID NO:9) (M1 SAHBd) and certain sequence variants of peptide 3 (SEQ ID NO:9) (M1 SAHBd).

[5] = target: T1, interaction between Bak and Mcl-1 (Homo sapiens, UniProt Q07820); experiment: Mcl-1 immunoprecipitation and Bak western analysis in OCI-AML3 cell lysate; format: biochemical
T1 construct: endogenous in cells; host or cells: OCI-AML3 cell lysate
Excerpt: The same blot was probed with the Bak (˜28 kD) antibody.

[6] = target: Mcl-1 (Homo sapiens, UniProt Q07820); experiment: Receptor binding IC50 of M1 and stapled M1 peptides (Table 2); settings: among M1 and its stapled variants
Excerpt: Peptides 1-10 are SEQ ID NOs: 46, 47, 9, 48, 49, 50, 7, 51, 52, and 8 respectively.

T1 sequence (Q07820 whole entry): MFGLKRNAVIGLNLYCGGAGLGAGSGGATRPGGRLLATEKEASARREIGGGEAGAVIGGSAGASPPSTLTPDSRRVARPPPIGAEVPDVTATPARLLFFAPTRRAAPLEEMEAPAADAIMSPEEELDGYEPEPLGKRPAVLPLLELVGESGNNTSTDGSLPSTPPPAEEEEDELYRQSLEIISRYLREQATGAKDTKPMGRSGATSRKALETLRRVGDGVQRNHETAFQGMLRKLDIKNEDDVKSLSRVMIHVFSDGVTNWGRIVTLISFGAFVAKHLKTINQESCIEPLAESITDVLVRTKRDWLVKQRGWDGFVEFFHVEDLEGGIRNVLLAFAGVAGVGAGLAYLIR
Mcl-1, sequence (Q07820 whole entry): as above

Row | SMILES | effect on cell viability (in words) [1] | effect on cell viability (in words) [2] | alpha-helical content (in words) [3] | LDH release, membrane disruption (in words) [4] | disruption of Bak/Mcl-1 interaction (in words) [5] | selectivity for Mcl-1 over Bcl-xL, Bcl-2, Bclw and Bfl 1 (in words) [6]
1 | CN(C)CC[C@H](CSc1ccccc1)Nc1ccc(S(=O)(=O)NC(=O)c2ccc(N3CCN(Cc4ccccc4-c4ccc(Cl)cc4)CC3)cc2)cc1[N+](=O)[O-] [ABT-737] | not active | clear dose-dependent reduction in cell viability | – | – | – | –
2 | CCCC[C@H](NC(=O)[C@H](Cc1c[nH]c2ccccc12)NC(=O)[C@@H](NC(C)=O)[C@@H](C)CC)C(=O)N[C@@]1(C)CCCC=CCCC[C@@](C)(C(=O)N[C@@H](CCCNC(=N)N)C(=O)N[C@@H](CC(C)C)C(=O)NCC(=O)N[C@@H](CC(=O)O)C(=O)N[C@@H](CCC(=O)O)C(=O)N[C@H](C(=O)N[C@@H](CC(N)=O)C(=O)N[C@@H](C)C(=O)N[C@@H](Cc2ccc(O)cc2)C(=O)N[C@@H](Cc2ccc(O)cc2)C(=O)N[C@@H](C)C(=O)N[C@@H](CCCNC(=N)N)C(=O)N[C@@H](CCCNC(=N)N)C(N)=O)[C@@H](C)CC)NC(=O)[C@H](CC(C)C)NC(=O)CNC(=O)[C@H](CCC(N)=O)NC1=O [peptide 3, IWNleXQGLXRLGDEINAYYARR] (Ac-IW[Nle][S5]QGL[S5]RLGDEINAYYARR-NH2; staple 4-8; N-terminus assumed) | – | – | highest alpha-helical content | membrane-disruptive | interaction between Bak and Mcl-1 was disrupted | greatest selectivity for Mcl-1
